From patent US20230085307A1, “PYRIDAZINONE COMPOUND AND HERBICIDE” (NISSAN CHEMICAL CORPORATION, priority 2019, published 2023)

Legend:
late watergrass = test: Test Example 2: herbicidal activity, application during weed generation under submerged conditions (Table 17, symbol A); type: in vivo, late watergrass (Echinochloa oryzicola); settings: for herbicidal effect rating, A: late watergrass: application during weed generation, submerged conditions
How it was run: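 Herbicide emulsion, diluted with water to the chosen amount, is applied onto 4 cm floodwater over alluvial soil where the weeds were co-sown and raised at 25–30° C. Application timing: 1–2 leaves. Assessment: three weeks afterwards.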

windgrass [1] = test: Test Example 5: herbicidal effect by foliage application, plastic box (Table 20, symbol L); type: in vivo, windgrass (Apera spica-venti); settings: foliage application
How it was run: (§1)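 Plants sown in sterilized diluvial soil and grown 14 days in a greenhouse at 25° C to 30° C, then sprayed on the foliage with the compound's emulsion diluted in water to a predetermined herbicide amount. Injury to weeds and crops scored three weeks after application on a visual rating scale.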

persian speedwell [2] = test: Test Example 5: herbicidal effect by foliage application, plastic box (Table 20, symbol R); type: in vivo, Persian speedwell (Veronica persica); settings: foliage application
How it was run: as §1

Italian ryegrass = test: Test Example 5: herbicidal effect by foliage application, plastic box (Table 20, symbol K); type: in vivo, Italian ryegrass (Lolium multiflorum); settings: foliage application
How it was run: as §1

oval-leafed pondweed = test: Test Example 1: herbicidal activity, application before weed generation under submerged conditions (Table 16, symbol C); type: in vivo, oval-leafed pondweed (Monochoria vaginalis)
How it was run: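 Alluvial soil was flooded to 4 cm depth, weed seeds were sown mixed and 2.5-leaf rice seedlings were transplanted. On sowing day, the compound's emulsion, diluted in water to a set dose, was applied to the water surface. Plants grew at 25–30 °C and were scored 0–5 after three weeks.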

lambsquarters [3] = test: Test Example 5: herbicidal effect by foliage application, plastic box (Table 20, symbol O); type: in vivo, lambsquarters (Chenopodium album); settings: foliage application
How it was run: as §1

lambsquarters [4] = test: Test Example 4: herbicidal effect by soil treatment (Table 19, symbol O); type: in vivo, lambsquarters (Chenopodium album)
How it was run: (§2)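 Three weeks of greenhouse growth at 25° C. to 30° C. followed a uniform surface spray of water-diluted emulsion at a predetermined herbicide amount. Seeds had been sown beforehand under about 1.5 cm of sterilized diluvial soil. Grading followed criteria set out in an earlier test.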

velvetleaf [5] = test: Test Example 5: herbicidal effect by foliage application, plastic box (Table 20, symbol M); type: in vivo, velvetleaf (Abutilon theophrasti); settings: foliage application
How it was run: as §1

southern crabgrass = test: Test Example 5: herbicidal effect by foliage application, plastic box (Table 20, symbol F); type: in vivo, southern crabgrass (Digitaria ciliaris); settings: foliage application
How it was run: as §1

green foxtail = test: Test Example 4: herbicidal effect by soil treatment (Table 19, symbol G); type: in vivo, green foxtail (Setaria viridis); settings: amount of applied herbicide 320 g/ha
How it was run: as §2

barnyard grass = test: Test Example 3: herbicidal effect by foliage application, Wagner pot (Table 18, symbol H); type: in vivo, barnyard grass (Echinochloa crus-galli); settings: for Herbicidal effect on H (barnyard grass), foliage application: amount of applied herbicide 320 g/ha
How it was run: (§3)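 Plants were sown in alluvial soil held under 0.1–0.5 cm standing water and grown 14 days in a greenhouse at 25–30 °C. An emulsifiable formulation, water-diluted to the set dose, was then sprayed onto the foliage, and effects were scored three weeks later using previously defined criteria.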

chickweed = test: Test Example 4: herbicidal effect by soil treatment (Table 19, symbol P); type: in vivo, common chickweed (Stellaria media)
How it was run: as §2

rice flat sedge = test: Test Example 3: herbicidal effect by foliage application, Wagner pot (Table 18, symbol E); type: in vivo, rice flat sedge (Cyperus iria); settings: for Herbicidal effect on E (rice flat sedge), foliage application: amount of applied herbicide 320 g/ha
How it was run: as §3

velvetleaf [6] = test: Test Example 4: herbicidal effect by soil treatment (Table 19, symbol M); type: in vivo, velvetleaf (Abutilon theophrasti)
How it was run: as §2

Chinese sprangletop = test: Test Example 3: herbicidal effect by foliage application, Wagner pot (Table 18, symbol D); type: in vivo, chinese sprangletop (Leptochloa chinensis); settings: for Herbicidal effect on D (Chinese sprangletop), foliage application: amount of applied herbicide 320 g/ha
How it was run: as §3

windgrass [7] = test: Test Example 4: herbicidal effect by soil treatment (Table 19, symbol L); type: in vivo, windgrass (Apera spica-venti); settings: amount of applied herbicide 320 g/ha
How it was run: as §2

persian speedwell [8] = test: Test Example 4: herbicidal effect by soil treatment (Table 19, symbol R); type: in vivo, Persian speedwell (Veronica persica)
How it was run: as §2

[9] = 320 g/ha, three weeks after application
[10] = amount of applied herbicide 320 g/ha
[11] = 320 g/ha, evaluated 3 weeks after application
[12] = 296 g/ha, three weeks after application
[13] = amount of applied herbicide 296 g/ha

Structure (SMILES) | herbicidal effect rating, A: late watergrass (late watergrass; AAH 320 g/ha) | herbicidal effect on windgrass (L) (windgrass [1]; [9]) | herbicidal effect on persian speedwell (R) (persian speedwell [2]; [9]) | herbicidal effect on Italian ryegrass (K) (Italian ryegrass; [9]) | Herbicidal effect, C: oval-leafed pondweed (oval-leafed pondweed; [10]) | herbicidal effect on lambsquarters (O) (lambsquarters [3]; [9]) | O: lambsquarters, herbicidal effect grade (lambsquarters [4]; [10]) | herbicidal effect on velvetleaf (M) (velvetleaf [5]; [9]) | herbicidal effect on southern crabgrass (F) (southern crabgrass; [9]) | G: green foxtail, herbicidal effect grade (green foxtail) | P: chickweed, herbicidal effect grade (chickweed; [10]) | M: velvetleaf, herbicidal effect grade (velvetleaf [6]; [10]) | Herbicidal effect on H (barnyard grass), foliage application (barnyard grass) | Herbicidal effect on E (rice flat sedge), foliage application (rice flat sedge) | R: persian speedwell, herbicidal effect grade (persian speedwell [8]; [10]) | Herbicidal effect on D (Chinese sprangletop), foliage application (Chinese sprangletop) | other results
COc1cc(F)ccc1-c1sc2cc(C)c(C)cc2c1-c1c(O)c(C)nn(C)c1=O [5-101] | 0 (Herbicidal rate of 5% or less (almost no effect)) | 3 (Herbicidal rate of 40% or more and less than 70%) | 4 (Herbicidal rate of 70% or more and less than 90%) | 4 (Herbicidal rate of 70% or more and less than 90%) | 3 (Herbicidal rate of 40% or more and less than 70%) | 4 (Herbicidal rate of 70% or more and less than 90%) | 2 (Herbicidal rate of 20% or more and less than 40%) | 4 (Herbicidal rate of 70% or more and less than 90%) | 4 (Herbicidal rate of 70% or more and less than 90%) | 0 (Herbicidal rate of 5% or less (almost no effect)) | 0 (Herbicidal rate of 5% or less (almost no effect)) | 0 (Herbicidal rate of 5% or less (almost no effect)) |  |  |  |  | herbicidal effect on barnyard grass (H) (barnyard grass; 320 g/ha): 5 (Herbicidal rate of 90% or more (almost completely withered)); herbicidal effect on rice flat sedge (E) (rice flat sedge; 320 g/ha): 3 (Herbicidal rate of 40% or more and less than 70%); herbicidal effect on Chinese sprangletop (D) (Chinese sprangletop; 320 g/ha): 2 (Herbicidal rate of 20% or more and less than 40%); L: windgrass, herbicidal effect grade (windgrass [7]): 0 (Herbicidal rate of 5% or less (almost no effect))
Cc1nn(C)c(=O)c(-c2c(-c3ccc(OC(C)C)cc3)oc3ccc(F)cc23)c1O [9-025] | 4 (Herbicidal rate of 70% or more and less than 90%) | 0 (Herbicidal rate of 5% or less (almost no effect)) | 5 (Herbicidal rate of 90% or more (almost completely withered)) | 5 (Herbicidal rate of 90% or more (almost completely withered)) | 5 (Herbicidal rate of 90% or more (almost completely withered)) | 4 (Herbicidal rate of 70% or more and less than 90%) | 4 (Herbicidal rate of 70% or more and less than 90%) | 5 (Herbicidal rate of 90% or more (almost completely withered)) | 5 (Herbicidal rate of 90% or more (almost completely withered)) | 5 (Herbicidal rate of 90% or more (almost completely withered)) | 0 (Herbicidal rate of 5% or less (almost no effect)) | 3 (Herbicidal rate of 40% or more and less than 70%) | 5 (Herbicidal rate of 90% or more (almost completely withered)) | 5 (Herbicidal rate of 90% or more (almost completely withered)) | 4 (Herbicidal rate of 70% or more and less than 90%) | 2 (Herbicidal rate of 20% or more and less than 40%) | 
COCCOc1ccc(-c2oc3ccc(C)cc3c2-c2c(O)c(C)nn(C)c2=O)cc1 [9-063] |  |  |  |  | 5 (Herbicidal rate of 90% or more (almost completely withered)) |  | 5 (Herbicidal rate of 90% or more (almost completely withered)) |  |  | 5 (Herbicidal rate of 90% or more (almost completely withered)) | 4 (Herbicidal rate of 70% or more and less than 90%) | 5 (Herbicidal rate of 90% or more (almost completely withered)) | 5 (Herbicidal rate of 90% or more (almost completely withered)) | 4 (Herbicidal rate of 70% or more and less than 90%) | 5 (Herbicidal rate of 90% or more (almost completely withered)) | 3 (Herbicidal rate of 40% or more and less than 70%) | herbicidal effect grade, A: late watergrass (late watergrass; application during weed generation under submerged conditions, amount of applied herbicide 320 g/ha): 5 (Herbicidal rate of 90% or more (almost completely withered)); L (windgrass) herbicidal effect grade (windgrass [1]; [11]): 4 (Herbicidal rate of 70% or more and less than 90%); R (persian speedwell) herbicidal effect grade (persian speedwell [2]; [11]): 5 (Herbicidal rate of 90% or more (almost completely withered)); K (Italian ryegrass) herbicidal effect grade (Italian ryegrass; [11]): 5 (Herbicidal rate of 90% or more (almost completely withered)); O (lambsquarters) herbicidal effect grade (lambsquarters [3]; [11]): 5 (Herbicidal rate of 90% or more (almost completely withered)); M (velvetleaf) herbicidal effect grade (velvetleaf [5]; [11]): 5 (Herbicidal rate of 90% or more (almost completely withered)); F (southern crabgrass) herbicidal effect grade (southern crabgrass; [11]): 5 (Herbicidal rate of 90% or more (almost completely withered))
CCCC(=O)Oc1c(C)nn(C)c(=O)c1-c1c(-c2ccccc2OC)sc2cc(OC)ccc12 [Compound No. 3-066, 5-(6-methoxy-2-(2-methoxyphenyl)benzo[b]thiophen-3-yl)-1,3-dimethyl-6-oxo-1,6-dihydropyridazin-4-yl=(n-butyrate)] |  |  |  |  |  |  |  |  |  |  |  |  |  |  |  |  | herbicidal effect rating, A: late watergrass (late watergrass; AAH 296 g/ha): 3 (Herbicidal rate of 40% or more and less than 70%); L: windgrass, herbicidal effect grade (windgrass [1]; [12]): 5 (Herbicidal rate of 90% or more (almost completely withered)); R: persian speedwell, herbicidal effect grade (persian speedwell [2]; [12]): 1 (Herbicidal rate of 5% or more and less than 20%); K: Italian ryegrass, herbicidal effect grade (Italian ryegrass; [12]): 4 (Herbicidal rate of 70% or more and less than 90%); Herbicidal effect, C: oval-leafed pondweed (oval-leafed pondweed; [13]): 5 (Herbicidal rate of 90% or more (almost completely withered)); O: lambsquarters, herbicidal effect grade (lambsquarters [3]; [12]): 5 (Herbicidal rate of 90% or more (almost completely withered)); O: lambsquarters, herbicidal effect grade (lambsquarters [4]; [13]): 0 (Herbicidal rate of 5% or less (almost no effect)); M: velvetleaf, herbicidal effect grade (velvetleaf [5]; [12]): 4 (Herbicidal rate of 70% or more and less than 90%); F: southern crabgrass, herbicidal effect grade (southern crabgrass; [12]): 4 (Herbicidal rate of 70% or more and less than 90%); herbicidal effect on barnyard grass (H) (barnyard grass; 296 g/ha): 5 (Herbicidal rate of 90% or more (almost completely withered)); P: chickweed, herbicidal effect grade (chickweed; [13]): 4 (Herbicidal rate of 70% or more and less than 90%); herbicidal effect on rice flat sedge (E) (rice flat sedge; 296 g/ha): 5 (Herbicidal rate of 90% or more (almost completely withered)); R: persian speedwell, herbicidal effect grade (persian speedwell [8]; [13]): 3 (Herbicidal rate of 40% or more and less than 70%); M: velvetleaf, herbicidal effect grade (velvetleaf [6]; [13]): 0 (Herbicidal rate of 5% or less (almost no effect)); herbicidal effect on Chinese sprangletop (D) (Chinese sprangletop; 296 g/ha): 1 (Herbicidal rate of 5% or more and less than 20%)
